Source: patent US8691757B2 (Bristol-Myers Squibb Company, priority 2011, dated 2014)

How the values were obtained:
[1] = test system: HCV genotype 1b (Con1) replicon in HUH-7 cells; experiment: HCV replicon luciferase reporter assay, genotype 1b; assay type: cell-based; conditions: Hepatitis C virus, 72 h, HCV genotype 1b replicon, 3 days incubation, Renilla luciferase
Excerpt: An HCV replicon whole cell system was established as described by Lohmann V, Korner F, Koch J, Herian U, Theilmann L, Bartenschlager R., Science 285(5424):110-3 (1999) and modified to introduce a luciferase reporter, as first described by Krieger et al (Krieger N, Lohmann V, and Bartenschlager R, J. Virol. 75(10):4614-4624 (2001)). CDNA encoding a humanized form of the Renilla luciferase gene and a linker sequence fused directly to the 3′-end of the luciferase gene were introduced into the replicon construct using an Asc1 restriction site located in core, directly upstream of the neomycin marker gene. The adaptive mutation at position 1179 (serine to isoleucine) was also introduced (Blight K J, Kolykhalov, A A, Rice, C M, Science 290(5498):1972-1974). A stable cell line constitutively expressing this HCV replicon construct was generated by first linearizing plasmid DNAs with ScaI. RNA transcripts were synthesized in vitro using the T7 MegaScript transcription kit (Ambion, Austin, Tex.) according to manufacturer's directions. In vitro transcripts of the cDNA were transfected into the human hepatoma cell line, HUH-7. […] Resulting cell lines were characterized for positive and negative strand RNA production and protein production over time. […]
(§1) HCV replicon luciferase assays were developed to monitor the inhibitory effects of compounds described in the disclosure on HCV genotypes 1a and 1b viral replication. HUH-7 cells, constitutively expressing the HCV replicon, were grown in Dulbecco's Modified Eagle Media (DMEM) (Gibco-BRL) containing 10% Fetal calf serum (FCS) (Sigma) and 1 mg/mL G418 (Gibco-BRL). Compounds were serially diluted 3 folds in DMSO for a twenty-point titration and subsequently transferred to sterile 384-well tissue-culture treated plates (Corning cat #3571). The plates were then seeded with 50 μL of cells at a density of 3.0×10^3 cells/well in DMEM containing 4% FCS (final DMSO concentration at 0.5%). After 3 days incubation at 37° C., cells were analyzed for Renilla Luciferase activity using the EnduRen as substrate (Promega cat #E6485). The EnduRen substrate was diluted in DMEM and then added to the plates to a final concentration of 7.5 μM. The plates were incubated for 2 hrs at 37° C. and then read immediately for 30 seconds with Viewlux Imager (PerkinElmer) using a luminescence program. To assess cytotoxicity of compounds, CC50 values were generated by multiplexing the EnduRen-containing plates with Cell Titer-Blue (Promega, cat #G8082). Cell-Titer Blue (3 μL) was added to each well and incubated for 8 hrs at 37° C. The fluorescence signal from each well was read, with an excitation wavelength at 525/10 nm and an emission wavelength of 598/10 nm, using the Viewlux Imager.
(§2) The EC50 values for compounds were calculated by using a four-parameter logistic equation: y=A+((B−A)/(1+((C/x)^D))), where A and B denotes minimal and maximal % inhibition, respectively, C is the EC50, D is the hill slope and x represents compound concentration.

[2] = test system: HCV genotype 1a (H77 strain) replicon in HUH-7 cells; experiment: HCV replicon luciferase reporter assay, genotype 1a; assay type: cell-based; conditions: Hepatitis C virus, 72 h, HCV genotype 1a replicon, 3 days incubation, Renilla luciferase
Excerpt: An HCV replicon whole cell system was established as described by Lohmann V, Korner F, Koch J, Herian U, Theilmann L, Bartenschlager R., Science 285(5424):110-3 (1999) and modified to introduce a luciferase reporter, as first described by Krieger et al (Krieger N, Lohmann V, and Bartenschlager R, J. Virol. 75(10):4614-4624 (2001)). CDNA encoding a humanized form of the Renilla luciferase gene and a linker sequence fused directly to the 3′-end of the luciferase gene were introduced into the replicon construct using an Asc1 restriction site located in core, directly upstream of the neomycin marker gene. The adaptive mutation at position 1179 (serine to isoleucine) was also introduced (Blight K J, Kolykhalov, A A, Rice, C M, Science 290(5498):1972-1974). A stable cell line constitutively expressing this HCV replicon construct was generated by first linearizing plasmid DNAs with ScaI. RNA transcripts were synthesized in vitro using the T7 MegaScript transcription kit (Ambion, Austin, Tex.) according to manufacturer's directions. In vitro transcripts of the cDNA were transfected into the human hepatoma cell line, HUH-7. […] Resulting cell lines were characterized for positive and negative strand RNA production and protein production over time.
A stable HCV replicon luciferase reporter cell line representing the genotype 1a H77 strain (Yanagi M, Purcell R H, Emerson S U, et al. Transcripts from a single full-length cDNA clone of hepatitis C virus are infectious when directly transfected into the liver of a chimpanzee. Proc Natl Acad Sci USA 1997; 94(16):8738-8743) was generated as described previously for the genotype 1b (Con1) replicon luciferase cell line. The replicon construct was modified by introducing mutations were introduced into the genes encoding the NS3 helicase domain (proline replaced by leucine at position 1496) and NS5A (serine to isoleucine at position 2204) to improve replication in cell culture.
as §1, §2

SMILES: COc1ccc2c(O[C@@H]3C[C@H]4C(=O)N[C@]5(C(=O)NS(=O)(=O)C6(CF)CC6)C[C@H]5/C=C\[C@H](C)CCC[C@@H](C)[C@H](NC(=O)OC(C)(C)C)C(=O)N4C3)ncc(OC)c2c1 [Compound 11, tert-butyl (2R,6S,7R,11R,13aS,14aR,16aS,Z)-2-(4,6-dimethoxyisoquinolin-1-yloxy)-14a-(1-(fluoromethyl)cyclopropylsulfonylcarbamoyl)-7,11-dimethyl-5,16-dioxo-1,2,3,5,6,7,8,9,10,11,13a,14,14a,15,16,16a-hexadecahydrocyclopropa[e]pyrrolo[1,2-a][1,4]diazacyclopentadecin-6-ylcarbamate]
- EC50 ([1]; range classes): 0.2 to 1 nM
- EC50 ([2]; range classes): 2.01 to 5 nM

SMILES: COc1ccc2ncc(O[C@@H]3C[C@H]4C(=O)N[C@]5(C(=O)NS(=O)(=O)C6(C)CC6)C[C@H]5/C=C\[C@@H](C)CCC[C@@H](C)[C@H](NC(=O)OC(C)(C)C(F)(F)F)C(=O)N4C3)nc2c1 [Compound 18]
- EC50 ([1]; range classes): 5.01 to 68 nM
- EC50 ([2]; range classes): 5.01 to 68 nM

SMILES: COc1ccc2c(O[C@@H]3C[C@H]4C(=O)N[C@]5(C(=O)NS(=O)(=O)C6CC6)C[C@H]5/C=C\[C@H](C)CCC[C@@H](C)[C@H](NC(=O)OC(C)(C)C(F)(F)F)C(=O)N4C3)nccc2c1 [Compound 9, 1,1,1-trifluoro-2-methylpropan-2-yl (2R,6S,7R,11R,13aS,14aR,16aS,Z)-14a-(cyclopropylsulfonylcarbamoyl)-2-(6-methoxyisoquinolin-1-yloxy)-7,11-dimethyl-5,16-dioxo-1,2,3,5,6,7,8,9,10,11,13a,14,14a,15,16,16a-hexadecahydrocyclopropa[e]pyrrolo[1,2-a][1,4]diazacyclopentadecin-6-ylcarbamate]
- EC50 ([1]; numeric values): 0.36 nM
- EC50 ([2]; numeric values): 1 nM

SMILES: COc1cnc(O[C@@H]2C[C@H]3C(=O)N[C@]4(C(=O)NS(=O)(=O)C5CC5)C[C@H]4/C=C\[C@H](C)CCC[C@@H](C)[C@H](NC(=O)OC(C)(C)C(F)(F)F)C(=O)N3C2)c2cccc(Cl)c12 [Compound 7, 1,1,1-trifluoro-2-methylpropan-2-yl (2R,6S,7R,11R,13aS,14aR,16aS,Z)-2-(5-chloro-4-methoxyisoquinolin-1-yloxy)-14a-(cyclopropylsulfonylcarbamoyl)-7,11-dimethyl-5,16-dioxo-1,2,3,5,6,7,8,9,10,11,13a,14,14a,15,16,16a-hexadecahydrocyclopropa[e]pyrrolo[1,2-a][1,4]diazacyclopentadecin-6-ylcarbamate]
- EC50 ([1]; range classes): 0.2 to 1 nM
- EC50 ([2]; range classes): 1.01 to 2 nM

SMILES: COc1ccc2ncc(O[C@@H]3C[C@H]4C(=O)N[C@]5(C(=O)NS(=O)(=O)C6CC6)C[C@H]5/C=C\[C@H](C)CCC[C@@H](C)[C@H](NC(=O)OC(C)(C)C)C(=O)N4C3)nc2c1 [Compound 28, tert-butyl (2R,6S,7R,11R,13aS,14aR,16aS,Z)-14a-(cyclopropylsulfonylcarbamoyl)-2-(7-methoxyquinoxalin-2-yloxy)-7,11-dimethyl-5,16-dioxo-1,2,3,5,6,7,8,9,10,11,13a,14,14a,15,16,16a-hexadecahydrocyclopropa[e]pyrrolo[1,2-a][1,4]diazacyclopentadecin-6-ylcarbamate]
- EC50 ([1]; range classes): 1.01 to 2 nM
- EC50 ([2]; range classes): 5.01 to 68 nM

SMILES: COc1ccc2c(O[C@@H]3C[C@H]4C(=O)N[C@]5(C(=O)NS(=O)(=O)C6CC6)C[C@H]5/C=C\[C@H](C)CCC[C@@H](C)[C@H](NC(=O)OC(C)(C)C(F)(F)F)C(=O)N4C3)ncc(OC)c2c1 [Compound 22, 1,1,1-trifluoro-2-methylpropan-2-yl (2R,6S,7R,11R,13aS,14aR,16aS,Z)-14a-(cyclopropylsulfonylcarbamoyl)-2-(4,6-dimethoxyisoquinolin-1-yloxy)-7,11-dimethyl-5,16-dioxo-1,2,3,5,6,7,8,9,10,11,13a,14,14a,15,16,16a-hexadecahydrocyclopropa[e]pyrrolo[1,2-a][1,4]diazacyclopentadecin-6-ylcarbamate]
- EC50 ([1]; range classes): 0.2 to 1 nM
- EC50 ([2]; range classes): 1.01 to 2 nM

SMILES: COc1ccc2nc(O[C@@H]3C[C@H]4C(=O)N[C@]5(C(=O)NS(=O)(=O)C6CC6)C[C@H]5/C=C\[C@@H](C)CCC[C@@H](C)[C@H](NC(=O)OC(C)(C)C)C(=O)N4C3)cnc2c1 [Compound 27, tert-butyl (2R,6S,7R,11S,13aS,14aR,16aS,Z)-14a-(cyclopropylsulfonylcarbamoyl)-2-(6-methoxyquinoxalin-2-yloxy)-7,11-dimethyl-5,16-dioxo-1,2,3,5,6,7,8,9,10,11,13a,14,14a,15,16,16a-hexadecahydrocyclopropa[e]pyrrolo[1,2-a][1,4]diazacyclopentadecin-6-ylcarbamate]
- EC50 ([1]; range classes): 5.01 to 68 nM
- EC50 ([2]; range classes): 5.01 to 68 nM

SMILES: COc1cnc(O[C@@H]2C[C@H]3C(=O)N[C@]4(C(=O)NS(=O)(=O)C5CC5)C[C@H]4/C=C\[C@@H](C)CCC[C@@H](C)[C@H](NC(=O)OC(C)(C)C(F)(F)F)C(=O)N3C2)c2cccc(Cl)c12 [Compound 8, 1,1,1-trifluoro-2-methylpropan-2-yl (2R,6S,7R,11S,13aS,14aR,16aS,Z)-2-(5-chloro-4-methoxyisoquinolin-1-yloxy)-14a-(cyclopropylsulfonylcarbamoyl)-7,11-dimethyl-5,16-dioxo-1,2,3,5,6,7,8,9,10,11,13a,14,14a,15,16,16a-hexadecahydrocyclopropa[e]pyrrolo[1,2-a][1,4]diazacyclopentadecin-6-ylcarbamate]
- EC50 ([1]; range classes): 1.01 to 2 nM
- EC50 ([2]; range classes): 2.01 to 5 nM

SMILES: COc1ccc2ncc(O[C@@H]3C[C@H]4C(=O)N[C@]5(C(=O)NS(=O)(=O)C6(C)CC6)C[C@H]5/C=C\[C@H](C)CCC[C@@H](C)[C@H](NC(=O)OC(C)(C)C(F)(F)F)C(=O)N4C3)nc2c1 [Compound 17]
- EC50 ([1]; range classes): 5.01 to 68 nM
- EC50 ([2]; range classes): 5.01 to 68 nM

SMILES: COc1ccc2ncc(O[C@@H]3C[C@H]4C(=O)N[C@]5(C(=O)NS(=O)(=O)C6CC6)C[C@H]5/C=C\[C@H](C)CCC[C@@H](C)[C@H](NC(=O)OC(C)(C)C(F)(F)F)C(=O)N4C3)nc2c1 [Compound 30, 1,1,1-trifluoro-2-methylpropan-2-yl (2R,6S,7R,11R,13aS,14aR,16aS,Z)-14a-(cyclopropylsulfonylcarbamoyl)-2-(7-methoxyquinoxalin-2-yloxy)-7,11-dimethyl-5,16-dioxo-1,2,3,5,6,7,8,9,10,11,13a,14,14a,15,16,16a-hexadecahydrocyclopropa[e]pyrrolo[1,2-a][1,4]diazacyclopentadecin-6-ylcarbamate]
- EC50 ([1]; range classes): 0.2 to 1 nM
- EC50 ([2]; range classes): 2.01 to 5 nM
